The record followed here is PubChem BioAssay AID330 (DTP/NCI, 2004).

The test system of this experiment is P388 leukemia ip, CD2F1 mice, survival T/C. Briefly: NCI In Vivo Anticancer Drug Screen. Data for tumor model P388 Leukemia (intraperitoneal) in CD2F1 (CDF1) mice. The conditions noted are these: endpoint: median survival time, higher = longer survival. The procedure, abridged: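 Mice carrying the transplanted tumor received test compound or vehicle. Survival was recorded in each group, and the value is the treated-group measurement divided by that of the vehicle-treated control group.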

[1] abbreviates: dose: 100.0 mg/kg/injection, schedule: Q01DX001 (ip), vehicle: saline.
Where [2] appears, read: dose: 50.0 mg/kg/injection, schedule: Q01DX005 (ip), vehicle: Klucel (hydroxypropylcellulose) (HPC).
[3] abbreviates: dose: 100.0 mg/kg/injection, schedule: Q01DX005 (ip), vehicle: Klucel (hydroxypropylcellulose) (HPC).
Setting [4] is: dose: 200.0 mg/kg/injection, schedule: Q01DX005 (ip), vehicle: Klucel (hydroxypropylcellulose) (HPC).
The mark [5] stands for this setting: dose: 50.0 mg/kg/injection, schedule: Q01DX005 (ip), vehicle: saline with Tween-80.
[6] abbreviates: dose: 100.0 mg/kg/injection, schedule: Q01DX005 (ip), vehicle: saline with Tween-80.
The mark [7] stands for this setting: dose: 200.0 mg/kg/injection, schedule: Q01DX005 (ip), vehicle: saline with Tween-80.
Where [8] appears, read: dose: 50.0 mg/kg/injection, schedule: Q01DX009 (ip), vehicle: saline with Tween-80.
Setting [9] is: dose: 100.0 mg/kg/injection, schedule: Q01DX009 (ip), vehicle: saline with Tween-80.
Setting [10] is: dose: 60.0 mg/kg/injection, schedule: Q01DX005 (ip), vehicle: saline with Tween-80.
The mark [11] stands for this setting: dose: 120.0 mg/kg/injection, schedule: Q01DX005 (ip), vehicle: saline with Tween-80.
[12] abbreviates: dose: 240.0 mg/kg/injection, schedule: Q01DX005 (ip), vehicle: saline with Tween-80.
Setting [13] is: dose: 50.0 mg/kg/injection, schedule: Q01DX009 (ip), vehicle: Klucel (hydroxypropylcellulose) (HPC).

Values joined by “and” are separate entries in the source; they are usually repeats but may differ in a detail not shown here. Equal values may be shown once. Toxic doses and inconclusive results are not listed.

Consider `O=C1NC(=O)C(c2ccccc2)(c2ccccc2)C2CC3c4[nH]c5ccccc5c4CCN3CC12` (configuration not stated), for which the T/C reads like this: (dose: 25.0 mg/kg/injection, schedule: Q01DX001 (ip), vehicle: saline) 117 % of control; (dose: 50.0 mg/kg/injection, schedule: Q01DX001 (ip), vehicle: saline) 88 % of control; under setting [1], 114 % of control and 90 % of control.

Consider `Clc1ccc(C#Cc2ccc(Cl)cc2)cc1`, for which the T/C is 109 % of control (dose: 3.13 mg/kg/injection, schedule: Q01DX009 (ip), vehicle: saline with Tween-80) and 113 % of control (dose: 6.25 mg/kg/injection, schedule: Q01DX009 (ip), vehicle: saline with Tween-80).

With `C=C(C)c1c2ccccc2cc2cccc(Sc3ccc(C(C)(C)C)cc3)c12`, the T/C (dose: 100.0 mg/kg/injection, schedule: Q04DX002 (ip), vehicle: saline with Tween-80) was 101 % of control; the T/C (dose: 200.0 mg/kg/injection, schedule: Q04DX002 (ip), vehicle: saline with Tween-80) is 96 % of control; the T/C (dose: 400.0 mg/kg/injection, schedule: Q04DX002 (ip), vehicle: saline with Tween-80) is 92 % of control.

Regarding `CN(C)c1ccc2c(N(C)C)cc(N(C)C)[n+](C)c2c1`, the T/C by setting is: (dose: 0.78 mg/kg/injection, schedule: Q01DX009 (ip), vehicle: distilled water + Tween-80 + alcohol) 106 % of control; (dose: 1.56 mg/kg/injection, schedule: Q01DX009 (ip), vehicle: distilled water + Tween-80 + alcohol) 115 % of control.

With `Nc1ccc(C(=O)Nc2ccc(S(=O)(=O)O)c3cccc(O)c23)cc1`, the T/C is 109 % of control under setting [2], 111 % of control under setting [3] and 109 % of control under setting [4].

Turning to `CC1(C)CN(Cc2ccccc2)CCOC1N1CCOCC1` (configuration not stated), the T/C is 93 % of control under setting [5], 101 % of control under setting [6] and 115 % of control under setting [7].

Turning to `CNC(=O)c1ccccc1NC(=O)c1ccccc1[N+](=O)[O-]`, the T/C was 102 % of control (dose: 100.0 mg/kg/injection, schedule: Q04DX002 (ip), vehicle: Klucel (hydroxypropylcellulose) (HPC)); 107 % of control (dose: 200.0 mg/kg/injection, schedule: Q04DX002 (ip), vehicle: Klucel (hydroxypropylcellulose) (HPC)); 103 % of control (dose: 400.0 mg/kg/injection, schedule: Q04DX002 (ip), vehicle: Klucel (hydroxypropylcellulose) (HPC)).

In the case of `C(=C\c1cc2cc(C3=NCCN3)ccc2[nH]1)/c1ccc(C2=NCCN2)cc1`, the T/C is, setting by setting: (dose: 6.25 mg/kg/injection, schedule: Q04DX003 (ip), vehicle: saline) 107 % of control and 108 % of control; (dose: 12.5 mg/kg/injection, schedule: Q04DX003 (ip), vehicle: saline) 117 % of control and 119 % of control.

Turning to `Oc1ccc(N=Nc2nccs2)c(O)c1`, the T/C was 96 % of control under setting [8]; 93 % of control under setting [9]; 99 % of control (dose: 200.0 mg/kg/injection, schedule: Q01DX009 (ip), vehicle: saline with Tween-80).

On to `CC(C)(Br)C(=O)/C=C/c1ccc(Cl)c(Cl)c1`, for which the T/C runs as follows: under setting [10], 111 % of control; under setting [11], 118 % of control; under setting [12], 108 % of control.

Regarding `COC(=O)C(C)(OC)SC` (configuration not stated), the T/C is 106 % of control under setting [10], 100 % of control under setting [11] and 98 % of control under setting [12].

For the molecule `O=C1C2CSCN2C(=O)CN1CCN1CCOCC1` (configuration not stated), the T/C runs as follows: (dose: 60.0 mg/kg/injection, schedule: Q01DX005 (ip), vehicle: saline) 100 % of control; (dose: 120.0 mg/kg/injection, schedule: Q01DX005 (ip), vehicle: saline) 100 % of control; (dose: 240.0 mg/kg/injection, schedule: Q01DX005 (ip), vehicle: saline) 100 % of control.

As for `CC(C)(C)n1nc(C2CC2)cc1NC(=O)Nc1ccccc1`, the T/C by setting is: (dose: 30.0 mg/kg/injection, schedule: Q01DX005 (ip), vehicle: Klucel (hydroxypropylcellulose) (HPC)) 99 % of control; (dose: 60.0 mg/kg/injection, schedule: Q01DX005 (ip), vehicle: Klucel (hydroxypropylcellulose) (HPC)) 98 % of control; (dose: 120.0 mg/kg/injection, schedule: Q01DX005 (ip), vehicle: Klucel (hydroxypropylcellulose) (HPC)) 98 % of control.

Consider `CCCCN(CCCC)CC(O)c1cc(-c2ccc(Cl)cc2)nc2c(Cl)cc(Cl)cc12` (configuration not stated), for which the T/C is 100 % of control (dose: 60.0 mg/kg/injection, schedule: Q01DX005 (ip), vehicle: Klucel + Tween-80) and 88 % of control (dose: 120.0 mg/kg/injection, schedule: Q01DX005 (ip), vehicle: Klucel + Tween-80).

Regarding `COc1cc2c(cc1C(C)c1ccc(C)cc1)OCO2` (configuration not stated), the T/C was 103 % of control under setting [2], 110 % of control under setting [3] and 114 % of control under setting [4].

Consider `CC(C)CCC[C@@H](C)[C@H]1CC[C@H]2[C@@H]3CCC(=O)[C@](C)(CCC(=O)O)[C@H]3CC[C@]12C`, for which the T/C was 96 % of control (dose: 6.25 mg/kg/injection, schedule: Q01DX009 (ip), vehicle: Klucel (hydroxypropylcellulose) (HPC)); 96 % of control (dose: 12.5 mg/kg/injection, schedule: Q01DX009 (ip), vehicle: Klucel (hydroxypropylcellulose) (HPC)); 92 % of control (dose: 25.0 mg/kg/injection, schedule: Q01DX009 (ip), vehicle: Klucel (hydroxypropylcellulose) (HPC)); 87 % of control under setting [13].

In the case of `O=C(CC(NC(=O)OCc1ccccc1)C(=O)O)OCc1ccccc1` (configuration not stated), the T/C runs as follows: (dose: 100.0 mg/kg/injection, schedule: Q04DX003 (ip), vehicle: saline sonified) 110 % of control; (dose: 200.0 mg/kg/injection, schedule: Q04DX003 (ip), vehicle: saline sonified) 105 % of control.

In the case of `Nc1nc(N)c(N=O)c(Nc2cccc(Br)c2)n1`, the T/C is 99 % of control (dose: 12.5 mg/kg/injection, schedule: Q01DX009 (ip), vehicle: saline with Tween-80); 99 % of control (dose: 25.0 mg/kg/injection, schedule: Q01DX009 (ip), vehicle: saline with Tween-80); 90 % of control under setting [8]; 91 % of control under setting [9].

For `O=C1OC(=O)C2C3C=CC(C3)C12` (configuration not stated), the T/C was 100 % of control (dose: 12.5 mg/kg/injection, schedule: Q01DX009 (ip), vehicle: saline sonified); 100 % of control (dose: 25.0 mg/kg/injection, schedule: Q01DX009 (ip), vehicle: saline sonified); 100 % of control (dose: 50.0 mg/kg/injection, schedule: Q01DX009 (ip), vehicle: saline sonified).

For `CCCCCCCCCCCCCC[N+]1(CC)CCCCCC1`, the T/C (dose: 0.04 mg/kg/injection, schedule: Q01DX009 (ip), vehicle: saline) is 100 % of control and 96 % of control.

Regarding `O=C1NC(=O)C2C3OC(C12)C1C2C(=O)NC(=O)C2C31` (configuration not stated), the T/C under setting [5] is 105 % of control and the T/C under setting [6] is 104 % of control.

Take `O=c1c2ccccc2c(=O)n2n1CCC2O` (configuration not stated): the T/C was 108 % of control (dose: 50.0 mg/kg/injection, schedule: Q01DX009 (ip), vehicle: saline); 101 % of control (dose: 100.0 mg/kg/injection, schedule: Q01DX009 (ip), vehicle: saline); 101 % of control (dose: 200.0 mg/kg/injection, schedule: Q01DX009 (ip), vehicle: saline).

As to `CCN(CC)C(=S)Oc1cc(C)nc(SCC(=O)c2ccc(Cl)cc2)n1`, the T/C under setting [13] is 108 % of control; the T/C (dose: 100.0 mg/kg/injection, schedule: Q01DX009 (ip), vehicle: Klucel (hydroxypropylcellulose) (HPC)) is 100 % of control; the T/C (dose: 200.0 mg/kg/injection, schedule: Q01DX009 (ip), vehicle: Klucel (hydroxypropylcellulose) (HPC)) is 103 % of control.

As for `COc1ccc(C2C(C#N)C(=O)N3C(=O)C(NC(C)=O)=C(O)C23)cc1` (configuration not stated), the T/C was 94 % of control under setting [1]; 95 % of control (dose: 200.0 mg/kg/injection, schedule: Q01DX001 (ip), vehicle: saline); 97 % of control (dose: 400.0 mg/kg/injection, schedule: Q01DX001 (ip), vehicle: saline).

Regarding `O=P(C/C=C/CO)(c1ccccc1)c1ccccc1`, the T/C was 98 % of control under setting [5], 98 % of control under setting [6] and 103 % of control under setting [7].

`NS(=O)(=O)c1ccc(N=NC2C(=O)N(c3ccc(Cl)cc3)C(=S)N(c3ccc(Cl)cc3)C2=O)cc1`: the T/C is, setting by setting: (dose: 12.5 mg/kg/injection, schedule: Q01DX005 (ip), vehicle: saline) 100 % of control; (dose: 25.0 mg/kg/injection, schedule: Q01DX005 (ip), vehicle: saline) 100 % of control; (dose: 50.0 mg/kg/injection, schedule: Q01DX005 (ip), vehicle: saline) 108 % of control and 118 % of control.
